The source of these data is US20020028809A1 (SUNTORY LIMITED, priority 1999, published 2002).

The target in assay [1] is T1, α4β2 subtype of nicotinic acetylcholine receptors (Rattus norvegicus, UniProt P09483+P12390).
T1 construct: examined using rat brain membrane obtained from whole homogenized brain; from tissue; host or cells: whole brain of Fischer-344 male rats, membrane pellet
Put plainly: Binding assays at α4β2 subtype of nicotinic acetylcholine receptors ([3H]-cytisine, rat brain membrane). The text has this:
(§1) Methods for evaluating binding capabilities of the compounds at nicotinic acetylcholine receptors are different by subtypes of receptors. Binding capabilities of the compounds at α4β2 nicotinic acetylcholine receptors are examined using rat brain membrane obtained from whole homogenized brain, and determining the inhibiting rate of the compounds against [^3H]-cytisine binding to said brain membrane. Furthermore, the binding capabilities of the compounds at α1β1γδ nicotinic acetylcholine receptors are examined using homogenized rat muscle, and determining the inhibiting rate of the compounds against [^3H]-α-bungarotoxin binding to said muscle homogenate.
Binding assays at α4β2 Subtype of Nicotinic Acetylcholine Receptors
(1) Preparation of Rat Brain Membrane Containing α4β2 Subtype of Nicotinic Acetylcholine Receptors
Rats were housed in the breeding cage controlled of the room temperature at 23±1° C., and the humidity of 55±5% for 1 to 4 weeks. Rats (3 to 4 rats per a cage) were housed with lights on for 12 hours daily (from 7:00 to 19:00), and allowed free access to food and water.
Preparation of rat brain membrane containing α4β2 subtype of nicotinic acetylcholine receptors was performed as follow. That is, rat brains were isolated just after sacrificed by decapitation, washed with ice-cooled saline solution and then frozen at −80° C. with liquid nitrogen and stored till using. After thawing the frozen brain, the brain was homogenized in 10 volumes of ice-cooled buffer solution (50 mM of Tris-HCl, 120 mM of NaCl, 5 mM of KCl, 1 mM of MgCl2, 2mM of CaCl2; pH 7.4; 4° C.) using homogenizer (HG30, Hitachi Kohki Ltd.) for 30 seconds, and the homogenate were centrifuged under 1,000×G for 10 minutes at 4° C. The resulting supernatant was separated and the pellet was homogenized again with half volume of aforementioned prior buffer solution and centrifuged under the same conditions. Combined supernatant was further centrifuged under 40,000×G for 20 minutes at 4° C. The pellet was suspended in buffer solution and used for binding assays at receptors.
(2) Experiments of α4β2 Subtype of Nicotinic Acetylcholine Receptors Binding
Suspensions of membrane pellets containing 400-600 μg of protein were added to test tubes containing test compounds and [^3H]-cytisine (2 nM) in a final volume of 200 μl and incubated for 75 minutes in ice-cooled bath. The samples were isolated by vacuum filtration onto Whatman GF/B filters, which were prerinsed with 0.5% polyethylenimine just prior to sample filtration, using Brandel multi manifold cell harvester. The filters were rapidly washed with buffer solution (3×1 ml). The filters were counted in 3 ml of clearsol I (Nacalai Tesque Inc.).
Analyses of the experimental results were conducted using the Accufit Competition Program (Beckman Ltd.).

The target in assay [2] is T2, α1β1γδ subtype of nicotinic acetylcholine receptors (Rattus norvegicus, UniProt P18916+P25108+P25109+P25110).
T2 construct: Native receptor, no construct: "Triton X100 (2% w/v) was added
T2 sequence (P25108 21-457): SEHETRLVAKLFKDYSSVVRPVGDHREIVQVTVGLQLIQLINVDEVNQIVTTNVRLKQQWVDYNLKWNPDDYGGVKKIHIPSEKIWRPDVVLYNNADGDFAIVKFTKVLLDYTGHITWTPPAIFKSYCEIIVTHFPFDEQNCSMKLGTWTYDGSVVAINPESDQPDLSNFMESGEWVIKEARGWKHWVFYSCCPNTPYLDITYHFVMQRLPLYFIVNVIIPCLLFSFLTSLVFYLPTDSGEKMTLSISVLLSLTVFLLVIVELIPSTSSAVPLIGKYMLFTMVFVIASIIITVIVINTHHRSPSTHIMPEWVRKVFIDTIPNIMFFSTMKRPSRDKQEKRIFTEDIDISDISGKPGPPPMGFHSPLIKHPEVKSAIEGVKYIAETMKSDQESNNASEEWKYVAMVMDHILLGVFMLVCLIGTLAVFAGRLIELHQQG
T2 sequence (P25110 22-517): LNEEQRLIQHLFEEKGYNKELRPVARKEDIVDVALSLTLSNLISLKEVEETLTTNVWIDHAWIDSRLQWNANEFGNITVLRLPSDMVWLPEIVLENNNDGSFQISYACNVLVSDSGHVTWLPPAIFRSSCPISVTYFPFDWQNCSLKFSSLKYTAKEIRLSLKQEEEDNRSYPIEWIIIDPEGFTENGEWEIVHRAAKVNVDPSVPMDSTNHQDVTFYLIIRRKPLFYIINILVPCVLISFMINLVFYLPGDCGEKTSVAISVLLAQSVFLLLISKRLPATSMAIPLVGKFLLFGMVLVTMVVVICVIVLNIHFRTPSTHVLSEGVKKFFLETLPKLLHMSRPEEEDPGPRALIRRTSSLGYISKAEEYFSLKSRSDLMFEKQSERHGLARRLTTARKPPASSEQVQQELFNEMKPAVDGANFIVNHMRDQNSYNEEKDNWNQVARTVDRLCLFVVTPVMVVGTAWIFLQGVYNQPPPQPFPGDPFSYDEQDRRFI
T2 sequence (P25109 24-501): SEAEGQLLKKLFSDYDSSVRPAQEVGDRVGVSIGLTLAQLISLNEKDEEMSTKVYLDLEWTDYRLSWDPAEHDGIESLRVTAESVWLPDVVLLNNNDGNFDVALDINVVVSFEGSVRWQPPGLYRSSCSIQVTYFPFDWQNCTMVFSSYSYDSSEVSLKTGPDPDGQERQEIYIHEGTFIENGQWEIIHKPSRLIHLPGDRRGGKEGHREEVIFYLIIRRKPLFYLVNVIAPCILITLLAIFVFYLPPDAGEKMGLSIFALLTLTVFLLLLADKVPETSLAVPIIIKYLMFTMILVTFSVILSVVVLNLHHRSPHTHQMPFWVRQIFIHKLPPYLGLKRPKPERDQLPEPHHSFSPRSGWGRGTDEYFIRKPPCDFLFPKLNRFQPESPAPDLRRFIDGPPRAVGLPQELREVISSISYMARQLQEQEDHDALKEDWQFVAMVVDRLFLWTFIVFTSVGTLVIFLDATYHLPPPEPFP
Briefly: Binding assays at α1β1γδ subtype of nicotinic acetylcholine receptors ([3H]-α-bungarotoxin, rat muscle extract). To be noted: for remaining activity at 100 µM / remaining activity at 1000 µM: read-out: control % of [3H]-α-Bgt binding.
Text: as §1
Binding Assays at α1β1γδ Subtype of Nicotinic Acetylcholine Receptors
Affinity of the compounds of the present invention to α1βγδ subtype of nicotinic acetylcholine receptors was measured by the following method, which was modified method described by Garcha H. S., Thomas P., Spivak C.
(1) Preparation of Rat Skeletal Muscles Containing α1β1γδ Subtype of Nicotinic Acetylcholine Receptors
The substantially same animals described in the Biological Experiment 1 were used.
Isolation of α1β1γδ subtype of nicotinic acetylcholine receptors was performed as follow. That is, rat posterior skeletal muscles were isolated just after sacrificed by decapitation, washed with ice-cooled saline solution and then frozen at −80° C. with liquid nitrogen and stored till using. After thawing the frozen muscles, tissue was homogenized (40% w/v) with buffer solution [2.5 mM of sodium phosphate buffer (pH:7.2), 90 mM of NaCl, 2 mM of KCl, 1 mM of EDTA, 2 mM of benzamidine, 0.1 mM of benzethonium chloride, […], 0.01% of sodium azide] in Waring blender (Waring blender 34BL97; WARING PRODUCTS DIVISION DYNAMICS CORPORATION OF AMERICA) for 60 seconds. The homogenate were centrifuged under 20,000×G for 60 minutes at 4° C. The supernatant was separated and the resulting pellet was added to the same buffer (1.5 ml/g wet weight), and homogenized under the same conditions. Triton X100 (2% w/v) was added and the mixture was stirred for 3 hours at 4° C. The centrifugation at 100,000×G for 60 minutes at 4° C. yielded the rat muscle extract as supernatant. This was stored at 4° C. for up to 4 weeks, and used for binding assays at receptors.
(2) Experiments of α1β1γδSubtype of Nicotinic Acetylcholine Receptors Binding
Receptors binding experiments were performed as follow. That is, the extract of rat muscle containing 600-900 μg of protein was added to test tubes containing test compounds and incubated for 15 minutes at 37° C. Then, to this mixture was added 1 nM of [^3H]-α-bungarotoxin (α-Bgt) and further incubated for 2 hours. The samples were isolated by vacuum filtration onto Whatman GF/B filters, which were prerinsed with 0.5% polyethylenimine just prior to sample filtration, using Brandel multi manifold cell harvester. The filters were rapidly rinsed with washing solution (10 mM of KH2PO4, 150 mM of NaCl, pH 7.2, room temperature) (5×1 ml). The filters were counted in 3 ml of clearsol I (Nacalai Tesque Inc.). Determination of nonspecific binding was incubated in the presence of 1 μM α-Bgt.
In the receptor binding experiments, said buffer solution was added for adjusting the final concentration of BSA to be 0.05%.
Analyses of the experimental results were conducted by the same way as described in the Biological Experiment 1.

Setting [3] is: at 1 μM of test compound, rat brain membrane.
Setting [4] is: at 10 μM of test compound, rat brain membrane.

Like-named read-outs stand apart in the source and are kept apart here.

T1 sequence (P09483 31-630): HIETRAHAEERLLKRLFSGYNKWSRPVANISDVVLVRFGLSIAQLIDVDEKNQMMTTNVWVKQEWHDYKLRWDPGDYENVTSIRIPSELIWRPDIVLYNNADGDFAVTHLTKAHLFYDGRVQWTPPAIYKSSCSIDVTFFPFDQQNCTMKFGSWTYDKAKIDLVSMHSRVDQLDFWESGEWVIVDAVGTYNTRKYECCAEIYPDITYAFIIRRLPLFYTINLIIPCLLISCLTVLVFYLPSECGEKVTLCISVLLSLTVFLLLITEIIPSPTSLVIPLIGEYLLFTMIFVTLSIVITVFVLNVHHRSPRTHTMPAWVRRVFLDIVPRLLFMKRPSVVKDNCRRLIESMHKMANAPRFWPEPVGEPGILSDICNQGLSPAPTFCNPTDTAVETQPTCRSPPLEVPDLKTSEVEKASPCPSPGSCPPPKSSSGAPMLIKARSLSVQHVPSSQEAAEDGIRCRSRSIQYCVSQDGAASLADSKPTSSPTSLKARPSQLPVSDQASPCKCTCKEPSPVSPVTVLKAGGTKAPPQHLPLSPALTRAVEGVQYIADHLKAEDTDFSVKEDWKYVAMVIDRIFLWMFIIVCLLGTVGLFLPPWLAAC
T1 sequence (P12390 25-500): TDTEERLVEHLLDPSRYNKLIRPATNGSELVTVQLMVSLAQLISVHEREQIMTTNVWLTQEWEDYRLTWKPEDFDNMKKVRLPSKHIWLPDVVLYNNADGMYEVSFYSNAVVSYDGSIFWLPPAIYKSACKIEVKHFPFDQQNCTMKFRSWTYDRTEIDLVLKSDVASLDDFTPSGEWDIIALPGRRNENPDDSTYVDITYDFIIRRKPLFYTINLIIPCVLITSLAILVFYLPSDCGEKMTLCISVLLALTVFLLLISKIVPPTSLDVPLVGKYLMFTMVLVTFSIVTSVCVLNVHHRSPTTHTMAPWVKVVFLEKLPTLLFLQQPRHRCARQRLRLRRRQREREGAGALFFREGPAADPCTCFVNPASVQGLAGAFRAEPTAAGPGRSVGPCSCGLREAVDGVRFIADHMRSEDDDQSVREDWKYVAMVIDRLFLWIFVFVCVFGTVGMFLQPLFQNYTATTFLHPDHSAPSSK

Turning to `N=c1scc(-c2ccccc2)n1Cc1ccc(Cl)nc1` [Compound 41, 3-(6-chloro-3-pyridyl)methyl-2-imino-4-phenyl-2,3-dihydrothiazole], affinity in assay [1] was put at a Ki of 32 nM. In assay [2], the remaining activity at 100 µM is 79% and the remaining activity at 1000 µM was determined as 30%.
Compound `N=c1scc(-c2ccc(Cl)cc2)n1Cc1ccc(Cl)nc1` [Compound 42, 4-(4-chlorophenyl)-3-(6-chloro-3-pyridyl)methyl-2-imino-2,3-dihydrothiazole] registered an inhibitory constant (Ki) in assay [1] of 290 nM. In assay [2], the remaining activity at 100 µM amounted to 75% and the remaining activity at 1000 µM worked out at 35%.
`N=C1SCC(c2ccccc2)N1Cc1ccc(Cl)nc1` (centres unmarked) [Compound 43, 3-(6-chloro-3-pyridyl)methyl-2-imino-4-phenylthiazolidine]: the figures for the Ki in assay [1] and in assay [2] were 37.1 nM and 19900 nM, respectively.
On to `N=c1ccc(-c2ccccc2)nn1Cc1cccnc1` [Compound 45, 3-imino-6-phenyl-2-(3-pyridyl)methyl-2,3-dihydropyridazine], for which, in assay [1], the Ki was determined as 143 nM. In assay [2], the remaining activity at 100 µM amounted to 18% and the remaining activity at 1000 µM was 6%.
For `N=c1ncc(-c2ccccc2)cn1Cc1ccc(Cl)nc1` [Compound 46, 1-(6-chloro-3-pyridyl)methyl-2-imino-5-phenyl-1,2-dihydropyrimidine] the same measures were 273 nM, 88% and 66%.
For the compound `N=c1ccc([N+](=O)[O-])cn1Cc1ccc(Cl)nc1` [Compound 47, 1-(6-chloro-3-pyridyl)methyl-2-imino-5-nitro-1,2-dihydropyridine], the Ki in assay [1] amounted to 227 nM. In assay [2], the remaining activity at 100 µM came to 93% and the remaining activity at 1000 µM was determined as 73%.
Regarding `Cc1ccc(Cn2ccccc2=N)cn1` [Compound 48, 2-imino-1-(6-methyl-3-pyridyl)methyl-1,2-dihydropyridine], the Ki is 47.9 nM in assay [1] and 56300 nM in assay [2].
With `N=C1SCCN1Cc1cccnn1` [Compound 49, 2-imino-3-(3-pyridazinyl)methylthiazolidine], the “control % of [3H]-cytisine binding” value is given as “(62%,” in assay [1] (setting [3]) and 16%) in assay [1] (setting [4]). Also, the remaining activity at 100 µM in assay [2] was 18%. The remaining activity at 1000 µM in assay [2] was determined as 14%.
Take `Cc1nc(N)n(Cc2ccc(Cl)nc2)c1C` [Compound 51, 2-amino-1-(6-chloro-3-pyridyl)methyl-4,5-dimethylimidazole]: the “control % of [3H]-cytisine binding” value in assay [1] (setting [3]) was “(96%”. The “control % of [3H]-cytisine binding” value in assay [1] (setting [4]) was 33%). In addition, in assay [2], the remaining activity at 100 µM came out at 103% and the remaining activity at 1000 µM came to 53%.
As for `Nc1nccn1Cc1cncnc1` [Compound 52, 2-amino-1-(5-pyrimidyl)methylimidazole], the Ki in assay [1] was found to be 24.9 nM; in assay [2], 302000 nM.
`Cc1cn(Cc2ccc(Cl)nc2)c(N)n1` [Compound 53, 2-amino-1-(6-chloro-3-pyridyl)methyl-4-methylimidazole] gave a Ki in assay [1] of 226 nM. For the same compound, in assay [2], the remaining activity at 100 µM is 98% and the remaining activity at 1000 µM was found to be 56%.
In assay [1], `Nc1nccn1Cc1cnc(Cl)c(Cl)c1` [Compound 54, 2-amino-1-(5,6-dichloro-3-pyridyl)methylimidazole] yielded a Ki of 9.72 nM. In assay [2], the remaining activity at 100 µM is 113% and the remaining activity at 1000 µM is 52%.
For `Nc1nccn1Cc1ccc(Cl)cc1` [Compound 58, 2-amino-i-(4-chlorobenzyl)imidazole], the “control % of [3H]-cytisine binding” value in assay [1] (setting [3]) is listed as “(62%,”. Also, the “control % of [3H]-cytisine binding” value in assay [1] (setting [4]) was determined as 16%). In assay [2], the remaining activity at 100 µM stood at 62% and the remaining activity at 1000 µM was 37%.
With `N=c1sccn1Cc1ccc(Cl)c(Cl)c1` [Compound 60, 3-(3,4-dichlorobenzyl)-2-imino-2,3-dihydrothiazole], the Ki in assay [1] came out at 31.9 nM; in assay [2] it was 61300 nM.
Take `N=c1sccn1Cc1cccc([N+](=O)[O-])c1` [Compound 61, 2-imino-3-(3-nitrobenzyl)-2,3-dihydrothiazole]: the inhibition constant (Ki) was determined as 65.4 nM in assay [1] and 219000 nM in assay [2].
Turning to `Cc1ccc(Cn2ccsc2=N)cc1` [Compound 63, 2-imino-3-(4-methylbenzyl)-2,3-dihydrothiazole], the Ki in assay [1] (rat brain membrane, [3H]-cytisine (2 nM), read-out: Affinities for receptors Ki α4β2) came out at 160 nM; in assay [2], 364000 nM.
With `N=c1sccn1Cc1cccc(C(F)(F)F)c1` [Compound 64, 2-imino-3-(3-trifluoromethylbenzyl)-2,3-dihydrothiazole], the “control % of [3H]-cytisine binding” value in assay [1] (setting [3]) was “(60%,”. For the same compound, in assay [1] (setting [4]), the “control % of [3H]-cytisine binding” value is 15%). In assay [2], the remaining activity at 100 µM came out at 77% and the remaining activity at 1000 µM was found to be 23%.
`N#Cc1ccc(Cn2ccsc2=N)cc1` [Compound 65, 3-(4-cyanobenzyl)-2-imino-2,3-dihydrothiazole]: the Ki in assay [1] is 181 nM; in assay [2] it was 311000 nM.
`N=c1sccn1Cc1c[nH]c2ncccc12` [Compound 66]: the Ki in assay [1] came to 16.1 nM; in assay [2], 184000 nM.
